Data taken from US20200101042A1, “4-METHYLUMBELLIFERONE TREATMENT FOR IMMUNE MODULATION” (Benaroya Research Institute at Virginia Mason, priority 2013, published 2020).

What was measured:
[1] = test system: DORmO mice; test: Blood glucose in DORmO double transgenic mouse model of autoimmune diabetes, 4-MU in chow; assay type: in vivo
Description: To determine that HA accumulates in the pancreatic islets and creates a permissive environment for autoimmune attacks during autoimmune diabetes disease progression, the DORmO double transgenic mouse model of autoimmune diabetes was used. DORmO mice predictably develop autoimmune diabetes because they are bred to have both a target antigen on their insulin producing beta-cells as well as an immune system that specifically recognizes that antigen. DORmO mice are the result of a cross between RIPmOVA mice (a strain that carries a gene specific for hen egg ovalbumin (OVA) that is only expressed on beta-cells, emulating the auto-antigen) and DO11.10 mice (a strain that carries a T-cell receptor transgene specific for OVA, emulating auto-reactive CD4+ T cells). […] A group of control mice was treated with 4-MU as well in order to see if 4-MU alters the blood glucose levels of those mice. […] The DORmO mice on control chow had to be sacrificed after getting diabetic according to the animal protocol. Another treatment group was established where the 4-MU treatment started at 12 weeks of age when the DORmO mice were already diabetic. […] The animals stained for HA were also stained for insulin. […] The pictures in the upper row show representative images of insulin staining in pancreatic islets in control animals treated with normal chow, (left column) or treated with 4-MU (right column).

[2] = test system: HA accumulation in the pancreatic islets; test: Immuno-staining for HA in pancreatic islets after 4-MU treatment; assay type: in vivo, mouse; settings: DORmO mice, 8 week start treatment group, versus DORmO mice on control chow
Description: HA accumulation in the pancreatic islets was investigated through immuno-staining after 4-MU treatment in a few mice of the 8 week start treatment group. […] The pictures in the upper row show representative images of a HA staining in pancreatic islets in control animals treated with normal chow, left column, or treated with 4-MU, right column.

[3] = test system: insulin in pancreatic islets; test: Immuno-staining for insulin in pancreatic islets after 4-MU treatment; assay type: in vivo, mouse; settings: DORmO mice treated with 4-MU, 8 week start treatment group
Description: The animals stained for HA were also stained for insulin. […] The pictures in the upper row show representative images of insulin staining in pancreatic islets in control animals treated with normal chow, (left column) or treated with 4-MU (right column).

[4] = test system: MOG35-55 peptide-induced EAE in C57B1/6 mice; test: MOG35-55 peptide-induced EAE mouse model of MS, EAE incidence and score; assay type: in vivo; settings: for incidence of EAE: control 9/10
Description: FIGS. 12A, 12B, and 12C graphically illustrate the mean EAE score as a function of days post induction in subjects treated with 4-MU according to a pretreatment, treatment, or intervention protocol, respectively.
For FIGS. 12A, 12B, and 12C, *P<0.05, ** P<0.01, ***P<0.001, Mann-Whitney.

[5] = test system: cells infiltrating into the spinal cord; test: Immunologic profile of cells infiltrating the spinal cord at peak of EAE; assay type: in vivo, mouse; settings: for CD4+ T-cell infiltration into the spinal cord: EAE day 22 after immunization
Procedure: The effect of 4-MU treatment on EAE pathogenesis was analyzed by evaluating the immunologic profile of cells infiltrating into the spinal cord at the peak of disease (day 22 after immunization).
Further, considering the differential pathologic roles that Th1 and Th17 cells have in EAE (Axtell, R. C., et al., Clin. Rev. Allergy Immunol. 44, 114-120 (2013); Lowther, D. E., et al., Acta Neuropathol. 126, 501-515 (2013)), this change in the local Th cell profile can contribute to the prevention of the autoimmune attack on myelin.

[6] = test system: CD4+ CD25+ cells; test: CD25+ of CD4+ T-cells in spleen and lymph nodes of EAE mice; assay type: in vivo, mouse; settings: EAE subjects, 4-MU started before immunization (pretreatment protocol)
[7] = test system: FoxP3+ T-cells; test: FoxP3+ T-cell numbers in lymphatic tissue after 4-MU treatment; assay type: in vivo, mouse
[8] = cited from earlier work
[9] = EAE mice after 4-MU treatment, FIG. 13B
[10] = EAE mice, 4-MU treatment, FIG. 13A

## Cc1cc(=O)oc2cc(O)ccc12 [4-MU, 4-methylumbelliferone]
[1]; DORmO mice, 4-MU added to chow
  normo-glycemia: restored normo-glycemia
[1]; DORmO mice, 4-MU in chow starting at 5 weeks of age
  blood glucose level / development of diabetes: not to become diabetic
[1]; DORmO mice, 4-MU treatment starting at 8 weeks of age, at 23 weeks of age
  blood glucose level: normal blood glucose level
[1]; already diabetic DORmO mice, 4-MU starting at 12 weeks of age, after 1 week of treatment
  blood glucose levels: decrease of the blood glucose levels
[2]
  HA accumulation in pancreatic islets (immuno-staining): significant decrease
[3]
  insulin in the islets (immuno-staining): still had a significant amount of insulin in the islets
[4]; intervention protocol, 4-MU after the onset of neurological symptoms
  EAE disease severity (mean EAE score): significantly ameliorated disease as early as 3 days after start of treatment
[4]; pretreatment protocol, 4-MU 5% w/w in chow from 4 days before immunization
  incidence of EAE: 1/7
[4]; treatment protocol, 4-MU 5% w/w in chow after immunization boost on day 2, before symptoms
  incidence of EAE: 2/10
[5]; intervention treatment
  CD4+ T-cell infiltration into the spinal cord: moderately reduced
[5]; pretreatment and early treatment with 4-MU
  CD4+ T-cell infiltration into the spinal cord: substantially reduced
[5]; [9]
  IFN-γ producing Th1 populations among CD4+ T-cells in the CNS: mainly reduced
  IL-17 producing Th17 population among CD4+ T-cells in the CNS: less affected
[5]; EAE mice on 4-MU
  total lymphocyte counts in lymphatic organs (generalized immunosuppression): unchanged
[5]; [10]
  infiltration of CD8+ and CD4+ lymphocytes and macrophages: reduced infiltration
  total numbers of cell infiltrates in spinal cord: lower total numbers of cell infiltrates
[6]
  number of CD4+ CD25+ cells in the spleen and lymph nodes: increased number
[7]; D0.11 mice following OVA immunization, FIG. 13D
  FoxP3+ T-cells in spleen, MLN, ILN and PLN: increase in FoxP3+ T-cells
[7]; D0.11 mice on 4-MU, data not shown
  general immunosuppression: did not induce a general immunosuppression
[7]; healthy mice, data not shown
  numbers of FoxP3+ T-cells in lymphatic tissue: significantly increased
[8]; general statement
  toxicity: no known toxicity
[8]; human use in Europe and Asia (biliary spasm, gallstones)
  safety profile in clinical use: excellent safety profile
